tested on: isolated rat soleus muscles; test: Measurement of force in an in vitro model: isolated rat soleus nerve-muscle preparation with tubocurarine; assay type: cell-based; conditions: 50 μM test compound, after 40 mins of compound exposure; 115 nM tubocurarine for 90 mins
Experimental: FIG. 2. […] Force traces from a representative muscle stimulated to contract in 1) control condition before addition of neuromuscular blocking agent, 2) the force response to stimulation after 90 minutes incubation with Tubocurarine. […] The traces presented in panel A (1, 2, 3), correspond to the dotted lines in panel B, respectively.
Recovery of force is quantified as the percentage of the force prior to tubocurarine that is recovered by the compound.
The current disclosure relates to compounds that inhibit CIC-1 ion channels and increase muscle excitability and thereby improve muscle function in clinical conditions where muscle activation is failing. Such conditions result in loss of contractile function of skeletal muscle, weakness and excessive fatigue. In this series of experiments the compounds were tested for their ability to restore contractile function of isolated rat muscle when the neuromuscular transmission had been compromised akin to neuromuscular disorders.
Experimentally, soleus muscles from 4-5 week old rats were isolated with the motor nerve remaining attached. The nerve-muscle preparations were mounted in experimental setups that enabled electrical stimulation of the motor nerve. Stimulation of the motor nerve led to activation of the muscle fibres and ensuing force production that was recorded. The nerve-muscle preparations were also in these experiments incubated in the standard Krebs Ringer (see example 5) and the solution was heated to 30° C. and continuously equilibrated with a mixture of 95% O2 and 5% CO2, pH˜7.4.
After mounting the nerve-muscle preparation in the experimental setup, the contractile function of the muscle was initially assessed under the control conditions (FIG. 2A). […] The experimental condition mimics the failing neuromuscular transmission in a range of neuromuscular disorders. After addition of tubocurarine the contractile force declined over the next 90 mins to 10-50% of the control force. 50 μM of the test compound was then added and the contractile force recovered despite the continued presence of tubocurarine. To quantify the ability of the compound to restore force the percentage of the initial force that was restored was determined after 40 mins of compound exposure (FIG. 2B) and the point increase is reported in Table 3.

SMILES	Point increase (%) of initial force that was restored [%]
CC(=NO)NC(=O)[C@H](C)Oc1ccc(Br)cc1F [Compound A-5, (2S)-2-(4-bromo-2-fluorophenoxy)-N-[1-(hydroxyimino)ethyl]ropanamide]	30
C[C@H](Oc1ccc(Br)cc1C(C)(F)F)C(=O)NC#N [Compound B-6]	15
CCC(F)(F)c1cc(Br)c(F)cc1O[C@@H](C)C(=O)NC#N [Compound B-7, (2S)-2-[4-bromo-2-(1,1-difluoropropy1)-5-fluorophenoxy]-N-cyanopropanamide]	37

same assay, conditions: Rattus norvegicus, 40 min; 50 μM test compound, after 40 mins of compound exposure; 115 nM tubocurarine for 90 mins; read-out: Point increase (%) of initial force that was restored

SMILES	activation at 50 µM [%]
C=Cc1cc(Cl)ccc1O[C@@H](C)c1nnn[nH]1 [Compound E-12, 5-[(1S)-1-(4-chloro-2-ethenylphenoxy)ethyl]-1H-1,2,3,4-tetrazole]	21
C[C@H](Oc1ccc(Cl)cc1)C(=O)NOC1CCCCO1 (stereo partly drawn) [Compound C-65, (2S)-2-(4-chlorophenoxy)-N-(oxan-2-yloxy)propanamide]	26
C[C@H](Oc1ccc(Cl)cc1)C(=O)NOCc1nccs1 [Compound C-66, (2S)-2-(4-chlorophenoxy)-N-[(1,3-thiazol-2-yl)methoxy]propanamide]	21
C[C@H](Oc1ccc(Br)cc1)c1nn[nH]n1 [Compound E-6, 5-[(1S)-1-(4-bromophenoxy)ethyl]-2H-1,2,3,4-tetrazole]	21
C[C@H](Oc1ccc(Cl)cc1)C(=O)NOCCC1CCCC1 [Compound C-71, (2S)-2-(4-chlorophenoxy)-N-(2-cyclopentylethoxy)propanamide]	25
CC(=O)N1CCC(ON(C(C)=O)C(=O)[C@H](C)Oc2ccc(Cl)cc2)C1 (stereo partly drawn) [Compound C-16, (2S)-N-acetyl-N-[(1-acetylpyrrolidin-3-yl)oxy]-2-(4-chlorophenoxy)propanamide]	23
CC(=O)N1CCC(ON(C(C)=O)C(=O)[C@H](C)Oc2ccc(Br)cc2)C1 (stereo partly drawn) [Compound C-12, (2S)-N-acetyl-N-[(1-acetylpyrrolidin-3-yl)oxy]-2-(4-bromophenoxy)propanamide]	18
FCC[C@H](Oc1ccc(Br)cc1-c1ccon1)c1nn[nH]n1 [Compound E-1]	21
C[C@H](Oc1ccc(Cl)cc1)C(=O)NOC1CC(F)(F)C1 [Compound C-67, (2S)-2-(4-chlorophenoxy)-N-(3,3-difluorocyclobutoxy)propanamide]	23
CONC(=O)[C@H](C)Oc1ccc(Cl)cc1F [Compound C-40, (2S)-2-(4-chloro-2-fluorophenoxy)-N-methoxypropanamide]	24
CC(=O)N1CC(ON(C(C)=O)C(=O)[C@H](C)Oc2ccc(Cl)cc2)C1 [Compound C-3, (2S)-N-acetyl-N-[(1-acetylazetidin-3-yl)oxy]-2-(4-chlorophenoxy)propanamide]	29
C[C@H](Oc1ccc(Cl)cc1)C(=O)NOC(C)(C)C [Compound C-43, (2S)-N-(tert-butoxy)-2-(4-chlorophenoxy)propanamide]	20
C[C@H](Oc1ccc(Br)cc1F)C(=O)NOC1CCC1 [Compound C-31, (2S)-2-(4-bromo-2-fluorophenoxy)-N-cyclobutoxypropanamide]	56
C[C@H](Oc1ccc(Cl)cc1)C(=O)NOCc1ccon1 [Compound C-39, (2S)-2-(4-chlorophenoxy)-N-[(1,2-oxazol-3-yl)methoxy]propanamide]	49
